Assay results taken from patent publication EP4782445A1, “CDK KINASE INHIBITOR AND USE THEREOF” (Abbisko Therapeutics Co., Ltd., priority 2023, dated 2025).
pIC50: −log10 of the molar value.

Assays:
CDK4/cyclin D3 = target: T1, CDK4/cyclin D3 (Homo sapiens, UniProt P11802); test: In vitro biochemical kinase activity assay for CDK4/cyclin D3 (HTRF)
T1 construct: purchased Carna
Protocol: II. In Vitro Biochemical Kinase Activity Assay for CDK4/Cyclin D3
The inhibitory effects of the compounds of the present invention on CDK4/cyclin D3 kinase activity were determined using an HTRF assay. The experimental process was as follows: • 1. The kinase reaction was carried out in a 384-well plate. 4.9 nM CDK4/cyclin D3 (Carna), 1 mM (or 80 µM) ATP, and 0.3 µM biotin-labeled substrate protein Rb-biotin (Cisbio) were incubated at 30°C for 90 min in a buffer system composed of 50 mM MgCl2, 1 mM DTT, and basal kinase buffer (Cisbio). • 2. The detection solution (Cisbio, containing reagents that specifically recognize phosphorylated Rb and Rb-biotin proteins, respectively) was added. The plate was then sealed with a film (to protect from light and volatilization) and incubated at 25°C for 60 min. • 3. The plate was transferred to an Envision plate reader to detect FRET signals. (The 665/615 ratio was calculated by reading the emission at 665 nm and 615 nM, respectively.) • 4. The IC50 values were determined by analyzing the inhibition at varying compound concentrations using Model 205 in the XLfit software.

CDK6/cyclin D3 = target: T2, CDK6/cyclin D3 (Homo sapiens, UniProt Q00534); test: In vitro biochemical kinase activity assay for CDK6/cyclin D3 (HTRF)
T2 construct: purchased Carna
T2 sequence (Q00534 whole entry): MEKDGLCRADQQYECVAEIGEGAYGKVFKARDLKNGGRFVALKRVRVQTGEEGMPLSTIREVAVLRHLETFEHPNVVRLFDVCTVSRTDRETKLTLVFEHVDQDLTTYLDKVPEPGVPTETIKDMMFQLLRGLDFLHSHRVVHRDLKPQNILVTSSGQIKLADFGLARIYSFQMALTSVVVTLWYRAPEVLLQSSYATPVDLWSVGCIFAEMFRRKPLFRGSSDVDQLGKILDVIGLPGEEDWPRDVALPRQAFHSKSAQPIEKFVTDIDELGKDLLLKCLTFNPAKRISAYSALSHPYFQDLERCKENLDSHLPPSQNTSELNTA
T2 sequence (P30281 whole entry partner): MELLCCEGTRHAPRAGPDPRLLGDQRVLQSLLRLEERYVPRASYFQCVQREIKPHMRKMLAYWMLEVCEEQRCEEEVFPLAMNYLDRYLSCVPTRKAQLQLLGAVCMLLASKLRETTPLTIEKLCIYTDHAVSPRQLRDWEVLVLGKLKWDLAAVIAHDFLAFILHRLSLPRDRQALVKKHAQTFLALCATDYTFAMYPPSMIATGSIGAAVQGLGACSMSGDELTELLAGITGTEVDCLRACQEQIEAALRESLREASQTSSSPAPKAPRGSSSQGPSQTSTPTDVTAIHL
Protocol: III. In Vitro Biochemical Kinase Activity Assay for CDK6/Cyclin D3
The inhibitory effects of the compounds of the present invention on CDK6/cyclin D3 kinase activity were determined using an HTRF assay. The experimental process was as follows: 1. The kinase reaction was carried out in a 384-well plate. 0.02 nM CDK6/cyclin D3 (Carna), 1 mM (or 100 µM) ATP, and 0.3 µM biotin-labeled substrate protein Rb-biotin (Cisbio) were incubated at 30°C for 60 min in a buffer system composed of 5 mM MgCl2, 1 mM DTT, and basal kinase buffer (Cisbio). 2. The detection solution (Cisbio, containing reagents that specifically recognize phosphorylated Rb and Rb-biotin proteins, respectively) was added. The plate was then sealed with a film (to protect from light and volatilization) and incubated at 25°C for 60 min. 3. The plate was transferred to an Envision plate reader to detect FRET signals. (The 665/615 ratio was calculated by reading the emission at 665 nm and 615 nM, respectively.) 4. The IC50 values were determined by analyzing the inhibition at varying compound concentrations using Model 205 in the XLfit software.

[1] = data marked with *: 1 mM ATP in Step 1
[2] = unmarked data: 80 µM ATP in Step 1
[3] = unmarked data: 100 µM ATP in Step 1

T1 sequence (P11802 whole entry): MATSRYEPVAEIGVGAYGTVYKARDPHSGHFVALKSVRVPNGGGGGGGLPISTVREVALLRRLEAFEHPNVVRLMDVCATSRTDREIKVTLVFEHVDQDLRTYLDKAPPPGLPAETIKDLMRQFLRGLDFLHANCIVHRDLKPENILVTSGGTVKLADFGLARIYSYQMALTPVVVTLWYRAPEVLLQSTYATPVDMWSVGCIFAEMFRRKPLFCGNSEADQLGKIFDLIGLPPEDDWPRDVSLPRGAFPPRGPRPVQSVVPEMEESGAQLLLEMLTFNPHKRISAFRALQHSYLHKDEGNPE
T1 sequence (P30281 whole entry partner): as the sequence (P30281 whole entry partner) above

Compound	pIC50 (CDK4/cyclin D3; [1])	pIC50 (CDK6/cyclin D3; [1])	pIC50 (CDK4/cyclin D3; [2])	pIC50 (CDK6/cyclin D3; [3])
COC1COCC[C@H]1Nc1ncc(Cl)c(C#Cc2cnc(C(C)(C)O)n2C(C)C)n1 (stereo partly drawn) [Example 92, 2-(5-((5-chloro-2-(((4R)-3-methoxytetrahydro-2H-pyran-4-yl)amino)pyrimidin-4-yl)ethynyl)-1-isopropyl-1H-imidazol-2-yl)propan-2-ol]	7.00	6.28	–	–
CC(C)n1c(C#Cc2nc(N[C@@H]3CCOC[C@H]3O)ncc2Cl)cnc1C1CCCN1 (stereo partly drawn) [Example 68, (3 S,4R)-4-((5-chloro-4-((1-isopropyl-2-(pyrrolidin-2-yl)-1H-imidazol-5-yl)ethynyl)pyrimidin-2-yl)amino)tetrahydro-2H-pyran-3-ol]	7.11	5.59	–	–
CC(C)c1c(C#Cc2nc(N[C@@H]3CCOC[C@H]3O)ncc2Cl)cnn1CC(C)(C)O [Example 64, (3 S,4R)-4-((5-chloro-4-((1-(2-hydroxy-2-methylpropyl)-5-isopropyl-1H-pyrazol-4-yl)ethynyl)pyrimidin-2-yl)amino)tetrahydro-2H-pyran-3-ol]	–	–	7.88	6.88
CC(C)n1c(C#Cc2nc(N[C@@H]3CCOC[C@H]3O)ncc2Cl)cnc1CN1CCC[C@H](O)C1 [Example 75, (S)-1-((5-((5-chloro-2-(((3 S,4R)-3-hydroxytetrahydro-2H-pyran-4-yl)amino)pyrimidin-4-yl)ethynyl)-1-isopropyl-1H-imidazol-2-yl)methyl)piperidin-3-ol]	7.67	5.93	–	–
CC(C)n1c(C#Cc2nc(N[C@@H]3CCOC[C@H]3F)ncc2Cl)cnc1C(C)(C)O [Example 91, 2-(5-((5-chloro-2-(((3 S,4R)-3-fluorotetrahydro-2H-pyran-4-yl)amino)pyrimidin-4-yl)ethynyl)-1-isopropyl-1H-imidazol-2-yl)propan-2-ol]	7.05	6.48	–	–
CC(C)n1c(C#Cc2nc(N[C@@H]3CCOC[C@H]3O)ncc2Cl)cnc1[C@@H](C)N1CCC[C@H](O)C1 [Example 123, (S)-1-((R)-1-(5-((5-chloro-2-(((3 S,4R)-3-hydroxytetrahydro-2H-pyran-4-yl)amino)pyrimidin-4-yl)ethynyl)-1-isopropyl-1H-imidazol-2-yl)ethyl)piperidin-3-ol]	7.43	6.26	–	–
CC(C)n1c(C#Cc2nc(N[C@@H]3CCOC[C@H]3O)ncc2Cl)cnc1CN1[C@@H](C)COC[C@@H]1C [Example 74, (3 S,4R)-4-((5-chloro-4-((2-(((3 S,5 S)-3,5-dimethylmorpholino)methyl)-1-isopropyl-1H-imidazol-5-yl)ethynyl)pyrimidin-2-yl)amino)tetrahydro-2H-pyran-3-ol]	7.70	6.47	–	–
CC(C)n1c(C#Cc2nc(N[C@@H]3CCNC[C@H]3O)ncc2Cl)cnc1C(C)(C)O [Example 60, (3R,4R)-4-((5-chloro-4-((2-(2-hydroxypropan-2-yl)-1-isopropyl-1H-imidazol-5-yl)ethynyl)pyrimidin-2-yl)amino)piperidin-3-ol]	–	–	7.32	6.79
(3 S,4R)-4-((5-chloro-4-((1-(1, 1-difluoropropan-2-yl)-1H-imidazol-5-yl)ethynyl)pyrimidin-2-yl)amino)tetrahydro-2H-pyran-3-ol [Example 134]	7.44	6.64	–	–
CC(C)n1c(C#Cc2nc(N[C@H]3CC[C@H](NS(C)(=O)=O)CC3)ncc2Cl)cnc1C(C)(C)O [Example 99, N-((1R,4R)-4-((5-chloro-4-((2-(2-hydroxypropan-2-yl)-1-isopropyl-1H-imidazol-5-yl)ethynyl)pyrimidin-2-yl)amino)cyclohexyl)methanesulfonamide]	7.55	6.72	–	–

Continued by rising pIC50 (CDK4/cyclin D3; [1]), values first:

pIC50 (CDK4/cyclin D3; [1])	pIC50 (CDK6/cyclin D3; [1])	pIC50 (CDK4/cyclin D3; [2])	pIC50 (CDK6/cyclin D3; [3])	Compound
7.77	7.12	–	–	CC(C)n1c(C#Cc2nc(N[C@@H]3CCOC[C@H]3O)ncc2Cl)cnc1N1CCOC1=O [Example 126, 3-(5-((5-chloro-2-(((3S,4R)-3-hydroxytetrahydro-2H-pyran-4-yl)amino)pyrimidin-4-yl)ethynyl)-1-isopropyl-1H-imidazol-2-yl)oxazolidin-2-one]
7.77	6.58	–	–	CC(C)n1c(C#Cc2nc(N[C@@H]3CCOC[C@H]3O)ncc2Cl)cnc1CN1[C@H](C)COC[C@@H]1C [Example 72, (3S,4R)-4-((5-chloro-4-((2-(((3R,5S)-3,5-dimethylmorpholino)methyl)-1-isopropyl-1H-imidazol-5-yl)ethynyl)pyrimidin-2-yl)amino)tetrahydro-2H-pyran-3-ol]
7.92	6.59	–	–	CC(C)n1c(C#Cc2nc(N[C@@H]3CCOC[C@H]3O)ncc2Cl)cnc1CN1CCC[C@H](C#N)C1 [Example 103, (S)-1-((5-((5-chloro-2-(((3 S,4R)-3-hydroxytetrahydro-2H-pyran-4-yl)amino)pyrimidin-4-yl)ethynyl)-1-isopropyl-1H-imidazol-2-yl)methyl)piperidin-3-carbonitrile]
7.93	7.18	–	–	CC(C)n1c(C#Cc2nc(N[C@@H]3CCOC[C@H]3O)ncc2Cl)cnc1C(C)(O)C1CC1 (stereo partly drawn) [Example 125, (3 S,4R)-4-((5-chloro-4-((2-(1-cyclopropyl-1-hydroxyethyl)-1-isopropyl-1H-imidazol-5-yl)ethynyl)pyrimidin-2-yl)amino)tetrahydro-2H-pyran-3-ol]
8.05	6.94	–	–	CCN1CCN(Cc2ccc(Nc3ncc(Cl)c(C#Cc4cnc(CN5CCC[C@H](O)C5)n4C(C)C)n3)nc2)CC1 [Example 107, (S)-1-((5-((5-chloro-2-((5-((4-ethylpiperazin-1-yl)methyl)pyridin-2-yl)amino)pyrimidin-4-yl)ethynyl)-1-isopropyl-1H-imidazol-2-yl)methyl)piperidin-3-ol]
8.09	6.70	–	–	CC(C)n1c(C#Cc2nc(N[C@@H]3CCOC[C@H]3O)ncc2Cl)cnc1CN1CCC[C@@H](C#N)C1 [Example 98, (R)-1-((5-((5-chloro-2-(((3 S,4R)-3-hydroxytetrahydro-2H-pyran-4-yl)amino)pyrimidin-4-yl)ethynyl)-1-isopropyl-1H-imidazol-2-yl)methyl)piperidin-3-carbonitrile]
8.19	7.57	–	–	CC(C)n1c(C#Cc2nc(Nc3ccc(C4CCN(C)CC4)cn3)ncc2F)cnc1C(C)(C)O [Example 73, 2-(5-((5-fluoro-2-((5-(1-methylpiperidin-4-yl)pyridin-2-yl)amino)pyrimidin-4-yl)ethynyl)-1-isopropyl-1H-imidazol-2-yl)propan-2-ol]
8.23	7.42	–	–	[2H]C(C)(O)c1ncc(C#Cc2nc(N[C@@H]3CCOC[C@H]3O)ncc2Cl)n1C(C)C (stereo partly drawn) [Example 138, (3 S,4R)-4-((S-chloro-4-((2-(1-hydroxyethyl-1-d)-1-isopropyl-1H-imidazol-5-yl)ethynyl)pyrimidin-2-yl)amino)tetrahydro-2H-pyran-3-ol]
8.27	7.81	–	–	CC(C)n1c(C#Cc2nc(Nc3ccc(C4C5CN(C)CC54)cn3)ncc2Cl)cnc1C(C)(C)O (stereo not shown) [Example 119, 2-(5-((5-chloro-2-((5-(3-methyl-3-azabicyclo[3.1.0]hexan-6-yl)pyridin-2-yl)amino)pyrimidin-4-yl)ethynyl)-1-isopropyl-1H-imidazol-2-yl)propan-2-ol]
8.33	7.42	–	–	CCN1CCN(Cc2ccc(Nc3ncc(Cl)c(C#Cc4cnn(C)c4C(C)C)n3)nc2)CC1 [Example 69, 5-Chloro-N-(5-((4-ethylpiperazin-1-yl)methyl)pyridin-2-yl)-4-((5-isopropyl-1-methyl-1H-pyrazol-4-yl)ethynyl)pyrimidin-2-amine]
